Laboratory results from the supplement of paper PMC10477900.

Assays:
HCT116 [1] = settings: 72 h
Experimental: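 HCT116 control and MTA1-KO (CRISPR) HCT116 cells were seeded in 384-well plates (800 cells/well), treated 16 h later with 237 metabolism-related anticancer drugs at five doses (10 uM, 2 uM, 400 nM, 80 nM, 16 nM) for 72 h, two replicates; viability by CCK8. Values are % inhibition of viability relative to untreated cells, plus fitted IC50.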

HCT116 [2] = assay: viability inhibition vs untreated; higher = more cytotoxic; settings: 72 h

Compound	IC50 (HCT116 [1]; genotype: MTA1-KO) [µM]	IC50 (HCT116 [1]; genotype: control) [µM]	viability inhibition (HCT116 [2]; genotype: MTA1-KO, 16 nM) [%]	viability inhibition (HCT116 [2]; genotype: MTA1-KO, 80 nM) [%]	viability inhibition (HCT116 [2]; genotype: MTA1-KO, 400 nM) [%]	viability inhibition (HCT116 [2]; genotype: MTA1-KO, 2000 nM) [%]	viability inhibition (HCT116 [2]; genotype: MTA1-KO, 10000 nM) [%]	viability inhibition (HCT116 [2]; genotype: control, 16 nM) [%]	viability inhibition (HCT116 [2]; genotype: control, 80 nM) [%]	viability inhibition (HCT116 [2]; genotype: control, 400 nM) [%]	viability inhibition (HCT116 [2]; genotype: control, 2000 nM) [%]	viability inhibition (HCT116 [2]; genotype: control, 10000 nM) [%]
O=C(Oc1cccc(F)c1OC(=O)c1cccc(O)c1)c1cccc(O)c1 [WZB117]	> 10	> 10	1.38	-12.9	-10.3	-1.16	12.7	-23.3	-8.87	-3.93	-25.9	-15
O=c1[nH]c(-c2ccc(C(F)(F)F)cc2)nc2c1CSCC2 [XAV939]	> 10	> 10	1.12	-14.7	-18	-23.8	-14.9	4.99	12.8	0.365	4.5	0.791
Cc1c(C(=O)N2CCOc3ccc(-c4ccc(N)nc4)cc3C2)ccc(S(C)(=O)=O)c1F [XL388]	4.64	> 10	-7.29	5.97	0.224	19	74.8	0.193	-2.53	-7.3	-11.7	47
NS(=O)(=O)Cc1noc2ccccc12 [Zonisamide]	> 10	> 10	2.91	-1.38	-4.06	-5.28	-6.62	-7.18	-18.6	2.58	2.07	31.7
CO[C@H]1C[C@@H]2CC[C@@H](C)[C@@](O)(O2)C(=O)C(=O)N2CCCC[C@H]2C(=O)O[C@H]([C@H](C)C[C@@H]2CC[C@H](n3cnnn3)[C@H](OC)C2)CC(=O)[C@H](C)/C=C(\C)[C@@H](O)[C@@H](OC)C(=O)[C@H](C)C[C@H](C)/C=C/C=C/C=C/1C [Zotarolimus]	2.07	> 10	5.1	-1.86	2.56	34.7	69.3	-4.9	-11.3	-9.38	-17.6	9.36
C/C=C/c1cc(OC)c(OC)cc1OC [alpha-Asarone]	> 10	> 10	-3.55	-23.5	-15.1	-10.5	9.18	-6.36	-8.84	-15.6	-8.42	-0.859
